From patent US20250221965A1, “THERAPEUTIC AGENT FOR RESPIRATORY DISEASE” (THE JIKEI UNIVERSITY, priority 2022, published 2025)

Experiments:
[1] = system: p21 expression in human-derived cultured airway epithelial cells (HBEC) with cigarette smoke extract; test: Action on smoking stimulation-induced cell senescence (p21 expression); type: cell-based; settings: 24 hours
Procedure: The effect of pemafibrate was examined with reference to a procedure described in a literature (Saito N, et al.: J Immunol (2019), 202: 1428). That is, human-derived cultured airway epithelial cells (HBEC) were cultured in a culture medium supplemented with 10 nM to 100 nM of pemafibrate together with 1% cigarette smoke extract (CSE) for 24 hours, and were compared to a control (0 nM).

[2] = system: cigarette smoke-exposed COPD model; test: Cigarette smoke-exposed COPD model; type: in vivo, C57BL/6J mice
Description: The effect of pemafibrate was examined with reference to a procedure described in a literature ([…], et al.: Autophagy (2019), 15(3): 510)). That is, C57BL/6J mice were exposed to cigarette smoke with an exposure and inhalation system for small animals five times a week for 6 months. The mice were classified into a total of 4 groups as follows: the mice were classified into a normal diet group (Ctrl) and a 0.0003 w/w % pemafibrate mixed feed group (Pema), and the groups were each further classified into a room air group (RA) and a cigarette smoke exposure group (CS). First, a lung after the completion of the administration of pemafibrate was removed from the room air group (RA), and was evaluated for the expression of TFEB by being homogenized. […] Next, a bronchoalveolar lavage fluid was collected and evaluated for its cells. […] In addition, an alveolar diameter was measured and the degree of emphysema was evaluated.

[3] = system: TFEB expression in cultured human airway epithelial cells (BEAS2B); test: Induction of TFEB expression in human airway epithelial cell; type: cell-based; settings: 24 hours
Procedure: The effect of pemafibrate was examined with reference to a procedure described in a literature ([…], et al.: Autophagy (2019), 15(3): 510). That is, cultured human airway epithelial cells (BEAS2B) were cultured in a culture medium supplemented with 10 nM or 100 nM of pemafibrate for 24 hours, and were compared to a control (0 nM).

Compound: CC[C@@H](Oc1cccc(CN(CCCOc2ccc(OC)cc2)c2nc3ccccc3o2)c1)C(=O)O [pemafibrate, (R)-2-[3-[[N-(benzoxazol-2-yl)-N-3-(4-methoxyphenoxy)propyl]aminomethyl]phenoxy]butyric acid]
- expression of p21 increased by CSE stimulation ([1]; 10 nM to 100 nM pemafibrate with 1% CSE, FIG. 2): suppressed by pemafibrate in a dose-dependent manner
- suppressing action on cell senescence ([1]; 1% CSE): had a suppressing action on cell senescence
- pemafibrate concentration giving significant difference in ratio of p21 to ACTB expression vs control ([1]; 1% CSE, p<0.05): ≥ 20 nM
- destruction of lung structure (alveolar diameter, degree of emphysema) ([2]; cigarette smoke exposure (CS) 6 months, 0.0003 w/w % mixed feed, FIG. 5 and 6): the destruction of a lung structure due to the cigarette smoke exposure (CS) was suppressed
- cell senescence due to cigarette smoke exposure ([2]; cigarette smoke exposure (CS) 6 months, 0.0003 w/w % mixed feed, FIG. 7): the cell senescence due to the cigarette smoke exposure (CS) was suppressed
- expression of TFEB in lung homogenate ([2]; room air group (RA), 0.0003 w/w % pemafibrate mixed feed, 6 months, FIG. 3): an increase in expression of TFEB was observed
- expression of TFEB ([3]; 10 nM or 100 nM pemafibrate, vs control (0 nM), FIG. 1): increased in a manner dependent on the dose
- ratio of the expression amount of TFEB to the expression amount of ACTB ([3]; 10 nM or 100 nM, vs control, p<0.05): a significant difference was observed as compared to the control
